Patent publication US6914045B2, “Glycopeptide antibiotics” (Wyeth Holdings Corporation, priority 2001, dated 2005)

How the values were obtained:
[1] = test system: Enterococcus sp.; assay: in vitro antibacterial evaluation, MIC by broth dilution; type: cell-based; details: broth dilution, 18 hours at 35° C.; for MIC Enterococcus faecalis (ATCC 29212): strain ATCC 29212; for MIC Enterococcus faecalis (GC 2242): strain GC 2242; for MIC Enterococcus faecium (GC 2243): strain GC 2243; for MIC Enterococcus faecalis (GC 2691): strain GC 2691; for MIC Enterococcus faecalis (GC 3059): strain GC 3059; for MIC Enterococcus faecalis (GC 4552): strain GC 4552; for MIC Enterococcus faecalis (GC 4553): strain GC 4553; for MIC Enterococcus faecalis (GC 4554): strain GC 4554; for MIC Enterococcus faecium (GC 4556): strain GC 4556; for MIC Enterococcus faecium (GC 4557): strain GC 4557; for MIC Enterococcus avium (GC 4558): strain GC 4558; for MIC Enterococcus faecalis (GC 6189): strain GC 6189
Procedure, shortened: (§1)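 Following National Committee for Clinical Laboratory Standards recommendations (M7-A2), susceptibility was measured by dilution in Muller-Hinton II […]. Bacteria were seeded at 5×10^5 CFU/mL against compound concentrations from 64 down to 0.06 μg/mL.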

[2] = test system: Escherichia coli; assay: as above; type: cell-based
Procedure, shortened: as §1

[3] = test system: Staphylococcus sp.; assay: as above; type: cell-based; details: broth dilution, 18 hours at 35° C.; for MIC Staphylococcus aureus (GC 1131): strain GC 1131
Procedure, shortened: as §1

[4] = test system: Streptococcus sp.; assay: as above; type: cell-based; details: broth dilution, 18 hours at 35° C.; for MIC Streptococcus pneumoniae (ATCC 6301): strain ATCC 6301; for MIC Streptococcus pneumoniae (GC 1894): strain GC 1894; for MIC Streptococcus pyogenes (GC 4563): strain GC 4563; for MIC Streptococcus agalactiae (GC 4564): strain GC 4564; for MIC Streptococcus pneumoniae (GC 4565): strain GC 4565
Procedure, shortened: as §1

[5] = test system: Staphylococcus aureus-SMITH (GC 4543); assay: acute lethal infection in mice; type: in vivo; details: acute lethal infection, female CD-1 mice, intraperitoneal challenge, intravenous 30 min. after infection, 7 day survival
Procedure, shortened: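 Intraperitoneal challenge of female CD-1 mice with a bacterial dose lethal to untreated animals within 24-48 hr; single iv treatment 30 min later, 5 mice per dose level. Survival is scored at day 7 and pooled from three experiments to give the median effective dose.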

Cc1ccc(Oc2ccc(C3OCC4OC(OC5C(CO)OC(Oc6ccc(CC7NC(=O)C(C(C)c8ccccc8)NC(=O)CNC(=O)C(CO)NC(=O)C(C(O)C8CNC(=N)N8C8OC(CO)C(O)C(O)C8O)NC(=O)C(C(O)C8CNC(=N)N8)NC7=O)cc6)C(O)C5O)C(O)C(O)C4O3)cc2)cc1 (stereo not drawn) [Example 174, Cyclo[glycyl-β-methylphenylalanyl-O-[4-O-[4,6-O-[4-(4-methylphenoxy)benzylidene]hexopyranosyl]hexopyranosyl]tyrosyl-3-(2-iminoimidazolidin-4-yl)seryl-3-(3-hexopyranosyl-2-iminoimidazolidin-4-yl)serylseryl]]
1 µg/mL: MIC Enterococcus faecium (GC 2243) ([1]; inoculum 5×10^5 CFU/mL) | MIC Enterococcus faecalis (GC 4552) ([1]; inoculum 5×10^5 CFU/mL) | MIC Enterococcus faecalis (GC 4553) ([1]; inoculum 5×10^5 CFU/mL) | MIC Enterococcus faecalis (GC 4554) ([1]; inoculum 5×10^5 CFU/mL) | MIC Enterococcus faecium (GC 4556) ([1]; inoculum 5×10^5 CFU/mL) | MIC Enterococcus faecium (GC 2243) [1] | MIC Enterococcus faecalis (GC 4552) [1] | MIC Enterococcus faecalis (GC 4553) [1] | MIC Enterococcus faecalis (GC 4554) [1] | MIC Enterococcus faecium (GC 4556) [1] | MIC Staphylococcus aureus (GC 1131) ([3]; inoculum 5×10^5 CFU/mL) | MIC Staphylococcus aureus (GC 1131) [3] | MIC Staphylococcus aureus (GC 4544) ([3]; strain GC 4544) | MIC Staphylococcus aureus (GC 4545) ([3]; strain GC 4545) | MIC Staphylococcus aureus-SMITH (GC 4543) ([3]; strain GC 4543) | MIC Coagulase Negative Staphylococcus (GC 4549) ([3]; strain GC 4549) | MIC Coagulase Negative Staphylococcus (GC 4551) ([3]; strain GC 4551)
0.08 mg/kg: median effective dose (ED50), Staphylococcus aureus-SMITH (GC 4543) [5]
2 µg/mL: MIC Enterococcus faecalis (ATCC 29212) ([1]; inoculum 5×10^5 CFU/mL) | MIC Enterococcus faecalis (GC 2242) ([1]; inoculum 5×10^5 CFU/mL) | MIC Enterococcus faecalis (GC 2691) ([1]; inoculum 5×10^5 CFU/mL) | MIC Enterococcus faecalis (GC 3059) ([1]; inoculum 5×10^5 CFU/mL) | MIC Enterococcus faecium (GC 4557) ([1]; inoculum 5×10^5 CFU/mL) | MIC Enterococcus avium (GC 4558) ([1]; inoculum 5×10^5 CFU/mL) | MIC Enterococcus faecalis (GC 6189) ([1]; inoculum 5×10^5 CFU/mL) | MIC Enterococcus faecalis (ATCC 29212) [1] | MIC Enterococcus faecalis (GC 2242) [1] | MIC Enterococcus faecalis (GC 2691) [1] | MIC Enterococcus faecalis (GC 3059) [1] | MIC Enterococcus faecium (GC 4557) [1] | MIC Enterococcus avium (GC 4558) [1] | MIC Enterococcus faecalis (GC 6189) [1] | MIC Staphylococcus aureus (ATCC 29213) ([3]; strain ATCC 29213) | MIC Staphylococcus aureus (GC 3051) ([3]; strain GC 3051) | MIC Staphylococcus aureus (GC 3053) ([3]; strain GC 3053) | MIC Staphylococcus aureus (GC 4541) ([3]; strain GC 4541) | MIC Staphylococcus aureus (GC 4542) ([3]; strain GC 4542) | MIC Staphylococcus haemolyticus (GC 4546) ([3]; strain GC 4546) | MIC Coagulase Negative Staphylococcus (GC 4547) ([3]; strain GC 4547)
4 µg/mL: MIC Escherichia coli (GC 4560) ([2]; strain GC 4560, 18 hours at 35° C.)
<0.06 µg/mL: MIC Streptococcus pneumoniae (ATCC 6301) ([4]; inoculum 5×10^5 CFU/mL) | MIC Streptococcus pneumoniae (GC 1894) ([4]; inoculum 5×10^5 CFU/mL) | MIC Streptococcus pyogenes (GC 4563) ([4]; inoculum 5×10^5 CFU/mL) | MIC Streptococcus agalactiae (GC 4564) ([4]; inoculum 5×10^5 CFU/mL) | MIC Streptococcus pneumoniae (GC 4565) ([4]; inoculum 5×10^5 CFU/mL) | MIC Streptococcus pneumoniae (ATCC 6301) [4] | MIC Streptococcus pneumoniae (GC 1894) [4] | MIC Streptococcus pyogenes (GC 4563) [4] | MIC Streptococcus agalactiae (GC 4564) [4] | MIC Streptococcus pneumoniae (GC 4565) [4]
>64 µg/mL: MIC Escherichia coli (ATCC 25922) ([2]; strain ATCC 25922, 18 hours at 35° C.) | MIC Escherichia coli (GC 4559) ([2]; strain GC 4559, 18 hours at 35° C.)
0.5 µg/mL: MIC Coagulase Negative Staphylococcus (GC 4548) ([3]; strain GC 4548) | MIC Coagulase Negative Staphylococcus (GC 6257) ([3]; strain GC 6257)
